# Molecular target: T1, VEGFR-2 (Homo sapiens, UniProt P35968)
# T1 construct: gene KDR
# Assay: in vitro VEGFR-2 inhibition, Human VEGFR-2 ELISA kit
# Type: biochemical
# T1 sequence (P35968 20-1356): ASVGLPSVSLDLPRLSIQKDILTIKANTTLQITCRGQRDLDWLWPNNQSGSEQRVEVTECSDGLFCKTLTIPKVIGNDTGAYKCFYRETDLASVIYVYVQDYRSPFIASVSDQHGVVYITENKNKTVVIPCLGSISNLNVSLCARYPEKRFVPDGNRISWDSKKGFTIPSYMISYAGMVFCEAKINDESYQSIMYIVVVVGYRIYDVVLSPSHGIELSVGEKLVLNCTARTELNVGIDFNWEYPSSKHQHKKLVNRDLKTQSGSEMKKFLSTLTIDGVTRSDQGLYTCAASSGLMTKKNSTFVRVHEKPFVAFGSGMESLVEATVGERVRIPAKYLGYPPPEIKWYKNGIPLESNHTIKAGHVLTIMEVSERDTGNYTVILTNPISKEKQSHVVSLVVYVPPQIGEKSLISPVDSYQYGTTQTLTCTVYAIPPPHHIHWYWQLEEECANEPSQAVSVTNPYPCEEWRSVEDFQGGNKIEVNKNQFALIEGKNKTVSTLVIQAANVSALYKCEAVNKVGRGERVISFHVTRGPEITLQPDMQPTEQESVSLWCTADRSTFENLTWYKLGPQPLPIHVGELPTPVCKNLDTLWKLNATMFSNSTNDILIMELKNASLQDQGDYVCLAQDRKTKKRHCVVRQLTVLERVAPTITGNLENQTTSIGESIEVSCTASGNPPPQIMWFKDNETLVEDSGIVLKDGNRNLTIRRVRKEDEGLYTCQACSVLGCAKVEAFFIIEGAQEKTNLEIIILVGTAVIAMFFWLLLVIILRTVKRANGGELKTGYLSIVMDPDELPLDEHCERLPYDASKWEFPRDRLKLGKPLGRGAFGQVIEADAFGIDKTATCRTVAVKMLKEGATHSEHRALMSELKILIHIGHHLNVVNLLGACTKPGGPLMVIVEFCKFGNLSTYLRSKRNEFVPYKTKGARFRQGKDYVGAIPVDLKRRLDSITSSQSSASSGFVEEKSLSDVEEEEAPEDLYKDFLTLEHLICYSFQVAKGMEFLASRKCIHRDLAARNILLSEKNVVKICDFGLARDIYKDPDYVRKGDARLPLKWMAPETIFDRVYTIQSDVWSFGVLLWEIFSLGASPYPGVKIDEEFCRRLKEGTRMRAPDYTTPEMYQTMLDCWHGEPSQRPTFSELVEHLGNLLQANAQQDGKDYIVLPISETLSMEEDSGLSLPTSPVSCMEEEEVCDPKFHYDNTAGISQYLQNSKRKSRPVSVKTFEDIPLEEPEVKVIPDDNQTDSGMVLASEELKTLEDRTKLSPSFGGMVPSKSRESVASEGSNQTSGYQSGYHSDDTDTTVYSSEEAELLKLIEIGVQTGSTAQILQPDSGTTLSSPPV
compound,measurement,value
"C/C(=N\NC(=O)c1ccc(NC(=O)C(F)(F)F)cc1)c1cccc(NC(=O)c2cccnc2)c1 [compound 10, (E)-N-(3-(1-(2-(4-(2,2,2-Trifluoroacetamido)benzoyl)hydrazono)ethyl)phenyl)nicotinamide]",IC50,65.8 nM

# Source: article PMC9697799, “(E)-N-(3-(1-(2-(4-(2,2,2-Trifluoroacetamido)benzoyl)hydrazono)ethyl)phenyl)nicotinamide: A Novel Pyridine Derivative for Inhibiting Vascular Endothelial Growth Factor Receptor-2: Synthesis, Computational, and Anticancer Studies” (Molecules, 2022)
